Laboratory results published in patent US20110009265A1, “Herbicidal Compositions Comprising Pyroxasulfone” (BASF SE, priority 2008, published 2011).
Where two headings read alike, the source gives them in different places.

Legend:
Avena fatua (AVEFA) = assay: greenhouse pre-emergence herbicidal activity; type: in vivo; settings: read-out: observed % activity; for inhibition at 50 g/ha: 50 g ai/ha; for inhibition at 125 g/ha: 125 g ai/ha
Source text: (§1) For the pre-emergence treatment, directly after sowing the active compounds, which had been suspended or emulsified in water, were applied by means of finely distributed nozzles. The containers were irrigated gently to promote germination and growth and subsequently covered with transparent plastic hoods until plant had rooted. This cover caused uniform germination of the tests plants, unless this was adversely affected by active compounds.
(§2) The respective herbicides A and/or safener were formulated as 10% by weight strength suspension concentrate and introduced to the spray liquor with the amount of solvent system used for applying the active compound. Herbicide B and/or safener were used as commercially available formulations and introduced to the spray liquor with the amount of solvent system used for applying the active compound. In the examples, the solvent used was water.
(§3) Pendimethalin was used as a commercial aqueous suspension concentrate having an active ingredient concentration of 400 g/l.
(§4) The test period extended over 21 days. During this time, the plants were tended, and their response to the treatments with active compound was evaluated.
(§5) The evaluation for the damage caused by the chemical compositions was carried out using a scale from 0 to 100%, compared to the untreated control plants. Here, 0 means no damage and 100 means complete destruction of the plants.
(§6) The value E, which is to be expected if the activity of the individual compounds is just additive, was calculated using the method of S. R. Colby (1967) “Calculating synergistic and antagonistic responses of herbicide combinations”, Weeds 15, p. 22 ff.
(§7) where • X=effect in percent using herbicide A at an application rate a; • Y=effect in percent using herbicide B at an application rate b; • E=expected effect (in %) of A+B at application rates a+b.
(§8) If the value observed in this manner is higher than the value E calculated according to Colby, a synergistic effect is present.

Bromus inermis (BROIN) = assay: greenhouse pre-emergence herbicidal activity; type: in vivo; settings: read-out: observed % activity; for inhibition at 6.25 g/ha: 6.25 g ai/ha; for inhibition at 12.5 g/ha: 12.5 g ai/ha; for inhibition at 25 g/ha: 25 g ai/ha; for inhibition at 50 g/ha: 50 g ai/ha; for inhibition at 125 g/ha: 125 g ai/ha; for inhibition at 250 g/ha: 250 g ai/ha
Source text: as §1, §2, §3, §4, §5, §6, §7, §8

[1] = system: Capsella bursa-pastoris (CAPBP); assay: greenhouse pre-emergence herbicidal activity; type: in vivo; settings: read-out: observed % activity; for inhibition at 25 g/ha: 25 g ai/ha; for inhibition at 50 g/ha: 50 g ai/ha; for inhibition at 500 g/ha: 500 g ai/ha
Source text: as §1, §2, §3, §4, §5, §6, §7, §8

Galium aparine (GALAP) = assay: greenhouse pre-emergence herbicidal activity; type: in vivo; settings: read-out: observed % activity; for inhibition at 6.25 g/ha: 6.25 g ai/ha; for inhibition at 25 g/ha: 25 g ai/ha; for inhibition at 50 g/ha: 50 g ai/ha; for inhibition at 125 g/ha: 125 g ai/ha; for inhibition at 250 g/ha: 250 g ai/ha
Source text: as §1, §2, §3, §4, §5, §6, §7, §8

[2] = system: Phalaris canariensis (PHACA); assay: greenhouse pre-emergence herbicidal activity; type: in vivo; settings: read-out: observed % activity; for inhibition at 6.25 g/ha: 6.25 g ai/ha; for inhibition at 125 g/ha: 125 g ai/ha; for inhibition at 250 g/ha: 250 g ai/ha
Source text: as §1, §2, §3, §4, §5, §6, §7, §8

Thlaspi arvense (THLAR) [3] = assay: greenhouse pre-emergence herbicidal activity; type: in vivo; settings: read-out: observed % activity; for inhibition at 12.5 g/ha: 12.5 g ai/ha; for inhibition at 50 g/ha: 50 g ai/ha; for inhibition at 125 g/ha: 125 g ai/ha
Source text: as §1, §2, §3, §4, §5, §6, §7, §8

Veronica persica (VERPE) = assay: greenhouse pre-emergence herbicidal activity; type: in vivo; settings: read-out: observed % activity; for inhibition at 6.25 g/ha: 6.25 g ai/ha; for inhibition at 12.5 g/ha: 12.5 g ai/ha; for inhibition at 25 g/ha: 25 g ai/ha; for inhibition at 50 g/ha: 50 g ai/ha; for inhibition at 250 g/ha: 250 g ai/ha; for inhibition at 500 g/ha: 500 g ai/ha; for inhibition at 1000 g/ha: 1000 g ai/ha
Source text: as §1, §2, §3, §4, §5, §6, §7, §8

[4] = system: Alopecurus myosuroides (ALOMY); assay: greenhouse post-emergence herbicidal activity; type: in vivo; settings: for inhibition at 25 g/ha / inhibition at 250 g/ha: Alopecurus myosuroides, read-out: observed % activity
Source text: (§9) For the post-emergence treatment, the test plants were first grown to a height of 3 to 20 cm, depending on the plant habit, and only then treated. Here, the herbicidal compositions were suspended or emulsified in water as distribution medium and sprayed using finely distributing nozzles.
as §2, §3, §4, §5, §6, §7, §8

[5] = system: Amaranthus retroflexus (AMARE); assay: greenhouse post-emergence herbicidal activity; type: in vivo; settings: 20 DAT
Source text: as §9, §2, §3, §4, §5, §6, §7, §8

[6] = system: Apera spica-venti (APESV); assay: greenhouse post-emergence herbicidal activity; type: in vivo; settings: 20 DAT
Source text: as §9, §2, §3, §4, §5, §6, §7, §8

[7] = system: Capsella bursa-pastoris (CAPBP); assay: greenhouse post-emergence herbicidal activity; type: in vivo; settings: 20 DAT
Source text: as §9, §2, §3, §4, §5, §6, §7, §8

Lamium purpureum (LAMPU) = assay: greenhouse post-emergence herbicidal activity; type: in vivo; settings: 20 DAT
Source text: as §9, §2, §3, §4, §5, §6, §7, §8

[8] = system: Matricaria inermis (MATIN); assay: greenhouse post-emergence herbicidal activity; type: in vivo; settings: read-out: observed % activity; for inhibition at 50 g/ha: 50 g ai/ha; for inhibition at 250 g/ha: 250 g ai/ha
Source text: as §9, §2, §3, §4, §5, §6, §7, §8

Stellaria media (STEME) = assay: greenhouse post-emergence herbicidal activity; type: in vivo; settings: 20 DAT
Source text: as §9, §2, §3, §4, §5, §6, §7, §8

Thlaspi arvense (THLAR) [9] = assay: greenhouse post-emergence herbicidal activity; type: in vivo; settings: for inhibition at 100 g/ha / inhibition at 250 g/ha: Thlaspi arvense, read-out: observed % activity
Source text: as §9, §2, §3, §4, §5, §6, §7, §8

Viola arvensis (VIOAR) = assay: greenhouse post-emergence herbicidal activity; type: in vivo; settings: 20 DAT
Source text: as §9, §2, §3, §4, §5, §6, §7, §8

harmful plants = settings: known from Y. Yamaji et al., 2006; cited from earlier work

## Cn1nc(C(F)(F)F)c(CS(=O)(=O)C2=NOC(C)(C)C2)c1OC(F)F [pyroxasulfone, 3-[5-(difluoromethoxy)-1-methyl-3-(trifluoromethyl)pyrazol-4-ylmethylsulfonyl]-4,5-dihydro-5,5-dimethyl-1,2-oxazole]
Avena fatua (AVEFA); 192 h, 8 DAT
  inhibition at 50 g/ha: 70%
Avena fatua (AVEFA); 480 h, 20 DAT
  inhibition at 50 g/ha: 85%
Bromus inermis (BROIN); 192 h, 8 DAT
  inhibition at 6.25 g/ha: 40%
  inhibition at 12.5 g/ha: 50%
  inhibition at 25 g/ha: 50%
  inhibition at 50 g/ha: 60%
Bromus inermis (BROIN); 480 h, 20 DAT
  inhibition at 6.25 g/ha: 35%
  inhibition at 12.5 g/ha: 60%
  inhibition at 25 g/ha: 60%
  inhibition at 50 g/ha: 75%
[1]; 192 h, 8 DAT
  inhibition at 25 g/ha: 60%
  inhibition at 50 g/ha: 60%
[1]; 480 h, 20 DAT
  inhibition at 25 g/ha: 95%
  inhibition at 50 g/ha: 95%
Galium aparine (GALAP); 192 h, 8 DAT
  inhibition at 6.25 g/ha: 30%
  inhibition at 25 g/ha: 60%
  inhibition at 50 g/ha: 60%
Galium aparine (GALAP); 480 h, 20 DAT
  inhibition at 6.25 g/ha: 20%
  inhibition at 25 g/ha: 75%
  inhibition at 50 g/ha: 80%
[2]; 192 h, 8 DAT
  inhibition at 6.25 g/ha: 40%
[2]; 480 h, 20 DAT
  inhibition at 6.25 g/ha: 40%
Thlaspi arvense (THLAR) [3]; 192 h, 8 DAT
  inhibition at 12.5 g/ha: 40%
  inhibition at 50 g/ha: 60%
Thlaspi arvense (THLAR) [3]; 480 h, 20 DAT
  inhibition at 12.5 g/ha: 30%
  inhibition at 50 g/ha: 80%
Veronica persica (VERPE); 192 h, 8 DAT
  inhibition at 6.25 g/ha: 45%
  inhibition at 12.5 g/ha: 60%
  inhibition at 25 g/ha: 60%
  inhibition at 50 g/ha: 60%
Veronica persica (VERPE); 480 h, 20 DAT
  inhibition at 6.25 g/ha: 70%
  inhibition at 12.5 g/ha: 90%
  inhibition at 25 g/ha: 85%
  inhibition at 50 g/ha: 90%
[4]; 25 g ai/ha, 20 DAT
  observed activity in % destruction 20 days after treatment: 65%
[4]; 168 h, 25 g ai/ha, 7 DAT
  inhibition at 25 g/ha: 25%
[4]; 480 h, 25 g ai/ha, 20 DAT
  inhibition at 25 g/ha: 65%
[5]; 13 g ai/ha
  observed activity in % destruction 20 days after treatment: 45%
[6]; 50 g ai/ha
  observed activity in % destruction 20 days after treatment: 85%
[7]; 25 g ai/ha
  observed activity in % destruction 20 days after treatment: 35%
Lamium purpureum (LAMPU); 50 g ai/ha
  observed activity in % destruction 20 days after treatment: 70%
[8]; 168 h, 7 DAT
  inhibition at 50 g/ha: 40%
[8]; 480 h, 20 DAT
  inhibition at 50 g/ha: 0%
Stellaria media (STEME); 50 g ai/ha
  observed activity in % destruction 20 days after treatment: 85%
Stellaria media (STEME); 100 g ai/ha
  observed activity in % destruction 20 days after treatment: 95%
Thlaspi arvense (THLAR) [9]; 25 g ai/ha, 20 DAT
  observed activity in % destruction 20 days after treatment: 50%
Thlaspi arvense (THLAR) [9]; 100 g ai/ha, 20 DAT
  observed activity in % destruction 20 days after treatment: 80%
Thlaspi arvense (THLAR) [9]; 168 h, 100 g ai/ha, 7 DAT
  inhibition at 100 g/ha: 70%
Thlaspi arvense (THLAR) [9]; 480 h, 100 g ai/ha, 20 DAT
  inhibition at 100 g/ha: 80%
Viola arvensis (VIOAR); 25 g ai/ha
  observed activity in % destruction 20 days after treatment: 0%
Harmful plants
  post-emergence activity: only poor post-emergence activity

## CCC(CC)Nc1c([N+](=O)[O-])cc(C)c(C)c1[N+](=O)[O-] [pendimethalin]
Avena fatua (AVEFA); 192 h, 8 DAT
  inhibition at 125 g/ha: 0%
Avena fatua (AVEFA); 480 h, 20 DAT
  inhibition at 125 g/ha: 0%
Bromus inermis (BROIN); 192 h, 8 DAT
  inhibition at 125 g/ha: 20%
  inhibition at 250 g/ha: 20%
Bromus inermis (BROIN); 480 h, 20 DAT
  inhibition at 125 g/ha: 0%
  inhibition at 250 g/ha: 0%
[1]; 192 h, 8 DAT
  inhibition at 500 g/ha: 50%
[1]; 480 h, 20 DAT
  inhibition at 500 g/ha: 85%
Galium aparine (GALAP); 192 h, 8 DAT
  inhibition at 125 g/ha: 0%
  inhibition at 250 g/ha: 0%
Galium aparine (GALAP); 480 h, 20 DAT
  inhibition at 125 g/ha: 0%
  inhibition at 250 g/ha: 0%
[2]; 192 h, 8 DAT
  inhibition at 125 g/ha: 0%
  inhibition at 250 g/ha: 30%
[2]; 480 h, 20 DAT
  inhibition at 125 g/ha: 0%
  inhibition at 250 g/ha: 0%
Thlaspi arvense (THLAR) [3]; 192 h, 8 DAT
  inhibition at 125 g/ha: 0%
Thlaspi arvense (THLAR) [3]; 480 h, 20 DAT
  inhibition at 125 g/ha: 20%
Veronica persica (VERPE); 192 h, 8 DAT
  inhibition at 250 g/ha: 65%
  inhibition at 500 g/ha: 65%
  inhibition at 1000 g/ha: 70%
Veronica persica (VERPE); 480 h, 20 DAT
  inhibition at 250 g/ha: 85%
  inhibition at 500 g/ha: 85%
  inhibition at 1000 g/ha: 90%
[4]; 250 g ai/ha, 20 DAT
  observed activity in % destruction 20 days after treatment: 45%
[4]; 168 h, 250 g ai/ha, 7 DAT
  inhibition at 250 g/ha: 35%
[4]; 480 h, 250 g ai/ha, 20 DAT
  inhibition at 250 g/ha: 45%
[5]; 500 g ai/ha
  observed activity in % destruction 20 days after treatment: 80%
[6]; 500 g ai/ha
  observed activity in % destruction 20 days after treatment: 10%
[7]; 1000 g ai/ha
  observed activity in % destruction 20 days after treatment: 95%
Lamium purpureum (LAMPU); 500 g ai/ha
  observed activity in % destruction 20 days after treatment: 90%
[8]; 168 h, 7 DAT
  inhibition at 250 g/ha: 0%
[8]; 480 h, 20 DAT
  inhibition at 250 g/ha: 0%
Stellaria media (STEME); 250 g ai/ha
  observed activity in % destruction 20 days after treatment: 85%
Stellaria media (STEME); 1000 g ai/ha
  observed activity in % destruction 20 days after treatment: 90%
Thlaspi arvense (THLAR) [9]; 250 g ai/ha, 20 DAT
  observed activity in % destruction 20 days after treatment: 80%
Thlaspi arvense (THLAR) [9]; 1000 g ai/ha, 20 DAT
  observed activity in % destruction 20 days after treatment: 90%
Thlaspi arvense (THLAR) [9]; 168 h, 250 g ai/ha, 7 DAT
  inhibition at 250 g/ha: 55%
Thlaspi arvense (THLAR) [9]; 480 h, 250 g ai/ha, 20 DAT
  inhibition at 250 g/ha: 80%
Viola arvensis (VIOAR); 500 g ai/ha
  observed activity in % destruction 20 days after treatment: 85%
